Source: PubChem BioAssay AID330 (DTP/NCI, 2004)
“And” between values parts separate entries of the source, which are not always exact repeats. Equal entries are not always repeated. Inconclusive results and toxic doses are left out. How the source made its calls: active means survival T/C of 150% or more; inactive means T/C below 125% in these data.

Test system: P388 leukemia ip, CD2F1 mice, survival T/C
Assay: NCI In Vivo Anticancer Drug Screen. Data for tumor model P388 Leukemia (intraperitoneal) in CD2F1 (CDF1) mice
Conditions: endpoint: median survival time, higher = longer survival
In short: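 Mice carrying the transplanted tumor received test compound or vehicle. Survival was recorded in each group, and the value is the treated-group measurement divided by that of the vehicle-treated control group.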

[1] = dose: 50.0 mg/kg/injection, schedule: Q01DX005 (ip), vehicle: saline with Tween-80
[2] = dose: 100.0 mg/kg/injection, schedule: Q01DX005 (ip), vehicle: saline with Tween-80
[3] = dose: 200.0 mg/kg/injection, schedule: Q01DX005 (ip), vehicle: saline with Tween-80
[4] = dose: 60.0 mg/kg/injection, schedule: Q01DX005 (ip), vehicle: Klucel (hydroxypropylcellulose) (HPC)
[5] = dose: 120.0 mg/kg/injection, schedule: Q01DX005 (ip), vehicle: Klucel (hydroxypropylcellulose) (HPC)
[6] = dose: 240.0 mg/kg/injection, schedule: Q01DX005 (ip), vehicle: Klucel (hydroxypropylcellulose) (HPC)
[7] = dose: 50.0 mg/kg/injection, schedule: Q01DX009 (ip), vehicle: saline with Tween-80
[8] = dose: 100.0 mg/kg/injection, schedule: Q01DX009 (ip), vehicle: saline with Tween-80
[9] = dose: 60.0 mg/kg/injection, schedule: Q01DX005 (ip), vehicle: saline with Tween-80
[10] = dose: 30.0 mg/kg/injection, schedule: Q01DX005 (ip), vehicle: saline
[11] = dose: 60.0 mg/kg/injection, schedule: Q01DX005 (ip), vehicle: saline
[12] = dose: 120.0 mg/kg/injection, schedule: Q01DX005 (ip), vehicle: saline with Tween-80
[13] = dose: 240.0 mg/kg/injection, schedule: Q01DX005 (ip), vehicle: saline with Tween-80
[14] = dose: 200.0 mg/kg/injection, schedule: Q01DX009 (ip), vehicle: saline with Tween-80
[15] = dose: 400.0 mg/kg/injection, schedule: Q01DX009 (ip), vehicle: saline with Tween-80

Measured: T/C

CCOC(=O)c1ccc(N=NC2Sc3nc4ccccc4n3C2=O)cc1 (stereo not drawn)
inactive: dose: 7.5 mg/kg/injection, schedule: Q01DX005 (ip), vehicle: Klucel (hydroxypropylcellulose) (HPC) 97 % of control | dose: 15.0 mg/kg/injection, schedule: Q01DX005 (ip), vehicle: Klucel (hydroxypropylcellulose) (HPC) 92 % of control | dose: 30.0 mg/kg/injection, schedule: Q01DX005 (ip), vehicle: Klucel (hydroxypropylcellulose) (HPC) 90 % of control

CC1(Oc2ccccc2)OC(=O)c2ccccc2O1 (stereo not drawn)
inactive: [1] 96 % of control | [2] 104 % of control | [3] 95 % of control

O=C(CBr)N(O)c1ccccc1OCc1ccccc1
inactive: dose: 6.25 mg/kg/injection, schedule: Q01DX001 (ip), vehicle: saline 116 % of control | dose: 12.5 mg/kg/injection, schedule: Q01DX001 (ip), vehicle: saline 98 % of control | dose: 25.0 mg/kg/injection, schedule: Q01DX001 (ip), vehicle: saline 104 % of control

COC(=O)/C(=C/c1c[nH]c2ccccc12)NC=O
inactive: [4] 97 % of control | [5] 97 % of control | [6] 92 % of control

COc1ccc2c(c1)nnn2C(=O)/C=C/c1ccccc1
inactive: dose: 12.5 mg/kg/injection, schedule: Q01DX009 (ip), vehicle: saline with Tween-80 94 % of control | dose: 25.0 mg/kg/injection, schedule: Q01DX009 (ip), vehicle: saline with Tween-80 107 % of control | [7] 101 % of control and 104 % of control

CC(C)(C)SC(=O)c1ccco1
inactive: [7] 118 % of control | [8] 114 % of control

Cc1oc(NCc2ccccc2)c(C#N)c1C
inactive: dose: 50.0 mg/kg/injection, schedule: Q01DX009 (ip), vehicle: saline + alcohol 105 % of control | dose: 100.0 mg/kg/injection, schedule: Q01DX009 (ip), vehicle: saline + alcohol 90 % of control | dose: 200.0 mg/kg/injection, schedule: Q01DX009 (ip), vehicle: saline + alcohol 91 % of control

c1ccc2c(c1)NC(NC1Nc3ccccc3N1)N2
inactive: dose: 30.0 mg/kg/injection, schedule: Q01DX005 (ip), vehicle: saline with Tween-80 91 % of control | [9] 86 % of control and 97 % of control

CN1CC=C(c2ccccc2)C(O)C1 (stereo not drawn)
inactive: dose: 12.5 mg/kg/injection, schedule: Q04DX002 (ip), vehicle: saline 116 % of control | dose: 15.0 mg/kg/injection, schedule: Q01DX005 (ip), vehicle: saline 100 % of control | dose: 25.0 mg/kg/injection, schedule: Q04DX002 (ip), vehicle: saline 101 % of control | [10] 99 % of control | dose: 50.0 mg/kg/injection, schedule: Q04DX002 (ip), vehicle: saline 101 % of control | [11] 117 % of control and 97 % of control

c1ccc([P+]23OCCN2CCO3)cc1
inactive: dose: 100.0 mg/kg/injection, schedule: Q04DX003 (ip), vehicle: saline with Tween-80 104 % of control | dose: 200.0 mg/kg/injection, schedule: Q04DX003 (ip), vehicle: saline with Tween-80 98 % of control | dose: 400.0 mg/kg/injection, schedule: Q04DX003 (ip), vehicle: saline with Tween-80 102 % of control

CCN1C2=NCCN2S(=O)(=O)c2ccccc21
inactive: [9] 96 % of control | [12] 97 % of control | [13] 97 % of control

Clc1ccccc1OCC1CO1 (stereo not drawn)
inactive: [8] 100 % of control | [14] 109 % of control | [15] 109 % of control

CC(C)c1nc(N)nc(N)n1
inactive: dose: 50.0 mg/kg/injection, schedule: Q01DX009 (ip), vehicle: saline 93 % of control | dose: 200.0 mg/kg/injection, schedule: Q01DX009 (ip), vehicle: saline 90 % of control

CC1(C)NN=C([N+](=O)[O-])C1c1ccccc1 (stereo not drawn)
inactive: [9] 107 % of control | [12] 111 % of control | [13] 107 % of control

CCOP(=O)(OCC)Oc1cnn(C)c(=O)c1SCC
inactive: dose: 0.78 mg/kg/injection, schedule: Q01DX005 (ip), vehicle: saline 98 % of control

CN(C)Cc1cnccc1I
inactive: dose: 50.0 mg/kg/injection, schedule: Q01DX005 (ip), vehicle: suspension in saline 101 % of control | dose: 100.0 mg/kg/injection, schedule: Q01DX005 (ip), vehicle: suspension in saline 104 % of control | dose: 200.0 mg/kg/injection, schedule: Q01DX005 (ip), vehicle: suspension in saline 108 % of control

CC(CN(C)C)C(=O)/C=C/c1ccc(F)cc1 (stereo not drawn)
inactive: [10] 100 % of control | [11] 101 % of control and 110 % of control

c1ccc2c(c1)Nc1ccccc1C1CC21 (stereo not drawn)
inactive: [7] 96 % of control | [8] 99 % of control | [14] 92 % of control

COC1=CC(=O)C2CC=CC3CC(=O)OC1C32CO (stereo not drawn)
inactive: dose: 50.0 mg/kg/injection, schedule: Q01DX005 (ip), vehicle: Klucel (hydroxypropylcellulose) (HPC) 113 % of control | dose: 100.0 mg/kg/injection, schedule: Q01DX005 (ip), vehicle: Klucel (hydroxypropylcellulose) (HPC) 103 % of control | dose: 200.0 mg/kg/injection, schedule: Q01DX005 (ip), vehicle: Klucel (hydroxypropylcellulose) (HPC) 101 % of control

O=S(=O)(O)CCCOC1COc2ccccc2OCCOCCOc2ccccc2OC1
inactive: dose: 50.0 mg/kg/injection, schedule: Q01DX005 (ip), vehicle: saline 99 % of control | dose: 100.0 mg/kg/injection, schedule: Q01DX005 (ip), vehicle: saline 101 % of control | dose: 200.0 mg/kg/injection, schedule: Q01DX005 (ip), vehicle: saline 98 % of control

CC(C)C1N=C(c2ccccc2)OC1=O (stereo not drawn)
inactive: [4] 92 % of control | [5] 92 % of control | [6] 100 % of control

COc1ccc2cc(O)ccc2c1
inactive: [8] 113 % of control | [14] 100 % of control | [15] 90 % of control

CCOC(=O)c1c(C)[nH]oc1=O
inactive: dose: 25.0 mg/kg/injection, schedule: Q01DX009 (ip), vehicle: saline sonified 109 % of control | dose: 50.0 mg/kg/injection, schedule: Q01DX009 (ip), vehicle: saline sonified 100 % of control | dose: 100.0 mg/kg/injection, schedule: Q01DX009 (ip), vehicle: saline sonified 100 % of control

C=C1N(C)c2ccccc2C1(C)C
inactive: dose: 4.0 mg/kg/injection, schedule: Q01DX009 (ip), vehicle: saline with Tween-80 113 % of control | dose: 5.9 mg/kg/injection, schedule: Q01DX009 (ip), vehicle: saline with Tween-80 123 % of control | dose: 9.0 mg/kg/injection, schedule: Q01DX009 (ip), vehicle: saline with Tween-80 110 % of control | dose: 13.0 mg/kg/injection, schedule: Q01DX009 (ip), vehicle: saline with Tween-80 108 % of control and 118 % of control | dose: 19.0 mg/kg/injection, schedule: Q01DX009 (ip), vehicle: saline with Tween-80 106 % of control | dose: 29.0 mg/kg/injection, schedule: Q01DX009 (ip), vehicle: saline with Tween-80 109 % of control | dose: 45.0 mg/kg/injection, schedule: Q01DX009 (ip), vehicle: saline with Tween-80 115 % of control

COc1ccc2nccc(/C=C/c3ccnc4ccc(OC)cc34)c2c1
inactive: [1] 103 % of control | [2] 103 % of control | [3] 100 % of control

COc1c(O)ccc2c1CCCCC2=O
inactive: [8] 103 % of control | [14] 110 % of control | [15] 106 % of control

CCOC(=O)CCN(CC1CC=CCC1)c1cc(O)c2c(c1O)C(=O)c1ccccc1C2=O (stereo not drawn)
inactive: dose: 25.0 mg/kg/injection, schedule: Q01DX005 (ip), vehicle: saline with Tween-80 91 % of control | [1] 92 % of control | [2] 90 % of control | [3] 92 % of control
